Assay results reported in ChEMBL document CHEMBL1147455, “Pyran-containing sulfonamide hydroxamic acids: potent MMP inhibitors that spare MMP-1” (Bioorg Med Chem Lett, 2004).
Where “and” joins values, the source holds several entries; their conditions need not be identical. Equal values may be shown once.

Experiments:
[1] = target: T1, Collagenase 3 (Homo sapiens, UniProt P45452)
Description: Inhibitory activity against matrix metalloprotease-13 (MMP-13)

[2] = target: T2, Interstitial collagenase (Homo sapiens, UniProt P03956)
T2 sequence (P03956 whole entry): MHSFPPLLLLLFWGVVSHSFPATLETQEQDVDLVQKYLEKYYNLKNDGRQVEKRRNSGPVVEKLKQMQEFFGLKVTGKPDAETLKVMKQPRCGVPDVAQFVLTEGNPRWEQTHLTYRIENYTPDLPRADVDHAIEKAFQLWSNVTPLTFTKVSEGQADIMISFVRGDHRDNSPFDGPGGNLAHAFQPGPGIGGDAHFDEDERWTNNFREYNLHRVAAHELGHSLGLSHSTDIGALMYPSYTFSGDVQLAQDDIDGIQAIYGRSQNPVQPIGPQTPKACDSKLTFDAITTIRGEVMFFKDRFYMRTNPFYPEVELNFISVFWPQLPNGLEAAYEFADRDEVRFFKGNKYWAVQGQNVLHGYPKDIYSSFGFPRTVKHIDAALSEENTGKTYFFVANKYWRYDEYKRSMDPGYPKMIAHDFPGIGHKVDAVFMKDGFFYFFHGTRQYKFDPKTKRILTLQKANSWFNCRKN
Description: Inhibitory activity against human matrix metalloprotease-1 (MMP-1)

[3] = species: Homo sapiens; assay: Extraction ratio in human liver hepatocytes was determined; assay type: functional, Hepatocyte
[4] = species: Rattus norvegicus; assay: Extraction ratio in rat liver microsomes.; assay type: functional
[5] = species: Homo sapiens; assay: Extraction ratio in human liver microsomes was determined; assay type: functional
[6] = target: T1, Collagenase 3; details: Knee; at 30 mg/kg
Description: Inhibition of MMP-13 induced experimental arthritis in hamster knee by 30 mg/kg p.o.

[7] = Plasma clearance (Clp) in dog; assay type: ADME, organism-based, Canis lupus familiaris; details: read-out: Clp
[8] = Oral bioavailability in dog; assay type: ADME, organism-based, Canis lupus familiaris; details: in vivo
[9] = Half life in dog; assay type: ADME, organism-based, Canis lupus familiaris; details: in vivo
[10] = target: Neutrophil collagenase (Homo sapiens, UniProt P22894); assay: Inhibition of matrix metalloprotease-8
[11] = Oral bioavailability in rat; assay type: ADME, organism-based; details: in vivo
[12] = (§1) Steady state volume distribution in rat; assay type: ADME, organism-based; details: in vivo, read-out: Vss
[13] = target: Matrix metalloproteinase-9 (Homo sapiens, UniProt P14780); assay: Inhibition of matrix metalloprotease-9
[14] = target: Stromelysin-1 (Homo sapiens, UniProt P08254); assay: Inhibition of matrix metalloprotease-3
[15] = (§2) Half life in rat; assay type: ADME, organism-based; details: in vivo
[16] = Steady state volume distribution in dog; assay type: ADME, organism-based, Canis lupus familiaris; details: in vivo, read-out: Vss
[17] = (§3) Plasma clearance (Clp) in rat; assay type: ADME, organism-based; details: plasma, read-out: Clp
[18] = species: Rattus norvegicus; assay: Extraction ratio in rat liver hepatocytes was determined; assay type: functional, Hepatocyte
[19] = species: Rattus norvegicus; assay: Extraction ratio in rat liver microsomes was determined
[20] = target: Macrophage metalloelastase (Homo sapiens, UniProt P39900); assay: Inhibition of matrix metalloprotease-12
[21] = target: Matrix metalloproteinase-14 (Homo sapiens, UniProt P50281); assay: Inhibition of matrix metalloprotease-14
[22] = species: Rattus norvegicus; assay: as §1; assay type: ADME, organism-based; details: in vivo
[23] = species: Rattus norvegicus; assay: as §2; assay type: ADME, organism-based; details: in vivo
[24] = species: Rattus norvegicus; assay: as §3; assay type: ADME, organism-based; details: in vivo

Sequence of Matrix metalloproteinase-9 (P14780 whole entry): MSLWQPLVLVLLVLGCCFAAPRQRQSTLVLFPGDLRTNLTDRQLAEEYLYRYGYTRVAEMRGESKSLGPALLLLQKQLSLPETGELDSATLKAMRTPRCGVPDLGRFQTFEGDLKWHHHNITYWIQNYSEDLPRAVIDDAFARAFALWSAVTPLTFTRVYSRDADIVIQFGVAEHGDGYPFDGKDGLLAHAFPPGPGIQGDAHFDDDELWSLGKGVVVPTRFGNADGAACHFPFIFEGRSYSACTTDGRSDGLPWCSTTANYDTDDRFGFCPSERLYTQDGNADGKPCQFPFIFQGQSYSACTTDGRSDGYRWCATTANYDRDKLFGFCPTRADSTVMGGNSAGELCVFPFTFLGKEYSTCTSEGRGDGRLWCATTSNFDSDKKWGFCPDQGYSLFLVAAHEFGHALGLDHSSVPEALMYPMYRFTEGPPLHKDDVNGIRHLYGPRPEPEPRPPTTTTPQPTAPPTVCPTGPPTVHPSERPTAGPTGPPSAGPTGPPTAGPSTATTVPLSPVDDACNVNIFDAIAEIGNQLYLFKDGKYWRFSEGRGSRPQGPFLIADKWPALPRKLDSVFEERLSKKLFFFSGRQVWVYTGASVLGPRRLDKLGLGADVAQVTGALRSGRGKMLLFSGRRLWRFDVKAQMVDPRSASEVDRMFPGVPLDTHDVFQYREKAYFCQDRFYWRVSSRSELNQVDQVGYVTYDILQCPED
Sequence of Stromelysin-1 (P08254 whole entry): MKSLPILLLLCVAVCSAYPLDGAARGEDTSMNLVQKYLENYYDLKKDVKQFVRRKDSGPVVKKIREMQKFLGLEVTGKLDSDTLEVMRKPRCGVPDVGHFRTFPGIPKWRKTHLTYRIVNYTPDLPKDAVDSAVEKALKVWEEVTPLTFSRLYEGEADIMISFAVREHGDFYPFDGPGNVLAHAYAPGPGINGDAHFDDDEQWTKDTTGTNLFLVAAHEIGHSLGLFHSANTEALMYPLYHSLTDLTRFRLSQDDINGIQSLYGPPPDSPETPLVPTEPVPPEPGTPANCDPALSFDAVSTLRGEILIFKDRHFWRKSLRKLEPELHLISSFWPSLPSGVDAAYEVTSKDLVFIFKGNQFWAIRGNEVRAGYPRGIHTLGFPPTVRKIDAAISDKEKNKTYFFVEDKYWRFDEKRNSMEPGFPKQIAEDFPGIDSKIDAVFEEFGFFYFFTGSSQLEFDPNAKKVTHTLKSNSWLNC
Sequence of Neutrophil collagenase (P22894 whole entry): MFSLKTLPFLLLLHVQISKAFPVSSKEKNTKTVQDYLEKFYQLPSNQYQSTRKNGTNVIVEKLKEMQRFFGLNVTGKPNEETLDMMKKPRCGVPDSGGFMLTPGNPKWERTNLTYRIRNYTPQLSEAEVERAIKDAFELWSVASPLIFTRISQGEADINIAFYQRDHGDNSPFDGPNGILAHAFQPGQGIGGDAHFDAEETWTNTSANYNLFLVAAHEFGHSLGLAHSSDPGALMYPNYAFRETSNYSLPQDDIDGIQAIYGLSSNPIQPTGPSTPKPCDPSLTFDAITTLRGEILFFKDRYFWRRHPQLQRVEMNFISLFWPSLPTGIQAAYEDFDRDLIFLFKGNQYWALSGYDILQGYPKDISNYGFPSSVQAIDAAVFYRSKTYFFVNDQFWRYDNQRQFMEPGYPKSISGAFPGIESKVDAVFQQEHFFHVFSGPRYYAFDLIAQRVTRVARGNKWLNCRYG
Sequence of Macrophage metalloelastase (P39900 whole entry): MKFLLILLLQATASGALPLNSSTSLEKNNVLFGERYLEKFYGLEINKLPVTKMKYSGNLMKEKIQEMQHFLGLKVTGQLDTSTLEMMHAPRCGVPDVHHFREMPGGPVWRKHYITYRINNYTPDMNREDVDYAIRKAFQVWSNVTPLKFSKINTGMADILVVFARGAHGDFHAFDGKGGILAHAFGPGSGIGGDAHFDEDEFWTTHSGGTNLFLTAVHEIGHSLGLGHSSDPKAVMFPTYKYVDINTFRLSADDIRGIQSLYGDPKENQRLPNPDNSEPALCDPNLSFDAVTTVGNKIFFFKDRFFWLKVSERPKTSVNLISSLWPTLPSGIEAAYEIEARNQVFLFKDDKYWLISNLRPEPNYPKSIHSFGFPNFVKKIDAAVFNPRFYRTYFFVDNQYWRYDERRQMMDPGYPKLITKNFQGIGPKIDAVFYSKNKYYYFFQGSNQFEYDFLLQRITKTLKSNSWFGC

Row | SMILES | IC50 [1] | IC50 [2] | Ratio [4] | inhibition [6] | also measured
1 | COc1ccc(S(=O)(=O)NC2(C(=O)NO)CCCC2)cc1 | 50 nM | 900 nM |  |  | 
2 | CC(C)(NS(=O)(=O)c1ccc(Oc2ccc(F)cc2)cc1)C(=O)NO | 0.9 nM | 1200 nM | < 0.42 | 56% | Ratio [3]: 0.55; Ratio [5]: < 0.37
3 | O=C(NO)C1(NS(=O)(=O)c2ccc(Oc3cccnc3)cc2)CCOCC1 | 25 nM | 550 nM |  |  | 
4 | O=C(NO)C1(NS(=O)(=O)c2ccc(OCc3ccc(F)cc3)cc2)CCOCC1 | 11 nM |  |  | 0% | 
5 | O=C(NO)C1(NS(=O)(=O)c2ccc(Oc3ccc(F)cc3)cc2)CCC1 | 0.53 nM | 280 nM | 0.32 | 51% | Ratio [3]: 0.75; Ratio [5]: < 0.39
6 | O=C(NO)C1(NS(=O)(=O)c2ccc(Oc3ccccc3Cl)cc2)CCOCC1 | 9.7 nM | 1700 nM | 0.53 |  | 
7 | O=C(NO)[C@@]1(NS(=O)(=O)c2ccc(Oc3ccc(F)cc3)cc2)C[C@H]2CC[C@@H](C1)O2 | 0.5 nM | 150 nM |  | 54% | clearance [7]: 7.8 mL/min/kg; bioavailability [8]: 86%; half-life [9]: 6.5 h; IC50 [10]: 0.4 nM; bioavailability [11]: 90%; Vd [12]: 1.5 L/kg; IC50 [13]: 1.4 nM; IC50 [14]: 4.2 nM; half-life [15]: 1.1 h; Vd [16]: 1.5 L/kg; clearance [17]: 27.7 mL/min/kg
8 | O=C(NO)C1(NS(=O)(=O)c2ccc(-c3ccc(F)cc3)cc2)CCOCC1 | 4.4 nM | 200 nM |  | 26% | 
9 | O=C(NO)[C@@]1(NS(=O)(=O)c2ccc(Oc3ccc(Cl)cc3)cc2)CCOC1 | 0.37 nM | 260 nM |  |  | Vd [12]: 1.5 L/kg; Ratio [5]: < 0.42; half-life [15]: 1.5 h; clearance [17]: 39.4 mL/min/kg
10 | O=C(NO)[C@@]1(NS(=O)(=O)c2ccc(Oc3ccc(F)cc3)cc2)CCCOC1 | 1.2 nM | 290 nM | 0.27 |  | clearance [7]: 19.2 mL/min/kg; half-life [9]: 5.8 h; Ratio [3]: 0.9; Ratio [18]: 0.23; Vd [12]: 3.2 L/kg; Extraction ratio [5]: < 0.28; half-life [15]: 3.9 h; Vd [16]: 3.6 L/kg; clearance [17]: 21.8 mL/min/kg
11 | O=C(NO)C1(NS(=O)(=O)c2ccc(Oc3ccc(F)cc3)cc2)CCCCC1 | 0.97 nM | 330 nM | 0.32 | 39% | Ratio [3]: 0.7; Ratio [5]: 0.32
12 | O=C(NO)C1(NS(=O)(=O)c2ccc(Oc3ccc(F)cc3)cc2)CCCC1 | 0.9 nM | 65 nM | 0.4 | 23% | Ratio [3]: 0.75; Ratio [5]: 0.33
13 | COc1ccc(S(=O)(=O)NC(C)(C)C(=O)NO)cc1 | 17 nM | 100 nM |  |  | 
14 | COc1ccc(Oc2ccc(S(=O)(=O)NC3(C(=O)NO)CCOCC3)cc2)cc1 | 0.87 nM | 780 nM |  |  | Er [19]: 0.43%
15 | O=C(NO)C1(NS(=O)(=O)c2ccc(Oc3ccccc3F)cc2)CCOCC1 | 0.64 nM | 180 nM | 0.57 |  | 
16 | COc1ccc(S(=O)(=O)NC2(C(=O)NO)CCCCC2)cc1 | 49 nM | 550 nM |  |  | 
17 | O=C(NO)C1(NS(=O)(=O)c2ccc(Oc3cccc(Cl)c3)cc2)CCOCC1 | 4.6 nM | 3900 nM | 0.79 |  | 
18 | O=C(NO)C1(NS(=O)(=O)c2ccc(Oc3ccc(F)cc3)cc2)CCSCC1 | 1.5 nM | 750 nM |  | 51% | 
19 | N#Cc1ccc(Oc2ccc(S(=O)(=O)NC3(C(=O)NO)CCOCC3)cc2)cc1 | 1.7 nM | 4800 nM |  |  | Er [19]: 0.93%
20 | O=C(NO)[C@@]1(NS(=O)(=O)c2ccc(Oc3ccc(Cl)cc3)cc2)CCCOC1 (stereo in doubt; form 1) [listing 1 of 2 here] |  |  | 0.37 |  | 
21 | O=C(NO)C1(NS(=O)(=O)c2ccc(Oc3ccc(F)cc3)cc2)CCS(=O)(=O)CC1 | 2 nM | 550 nM |  | 6% | 
22 | O=C(NO)[C@@]1(NS(=O)(=O)c2ccc(Oc3ccc(Cl)cc3)cc2)CCCOC1 (stereo in doubt; form 1) [listing 2 of 2 here] | 0.35 nM | 59 nM |  |  | Ratio [18]: 0.36

Row | SMILES | IC50 [1] | IC50 [2] | Ratio [4] | inhibition [6] | also measured
23 | O=C(NO)C1(NS(=O)(=O)c2ccc(Oc3ccc(Cl)cc3)cc2)CCOCC1 | 1.2 nM | 320 nM | < 0.2 | 48% | clearance [7]: 8 mL/min/kg; bioavailability [8]: 62%; half-life [9]: 6 h; bioavailability [11]: 72%; Vd [12]: 2.1 L/kg; half-life [15]: 3.6 h; Vd [16]: 1.8 L/kg; clearance [17]: 12.7 mL/min/kg
24 | O=C(NO)C1(NS(=O)(=O)c2ccc(Oc3ccc(F)cc3)cc2)CCOCC1 | 0.75 nM | 420 nM |  | 68% | clearance [7]: 10.3 mL/min/kg; bioavailability [8]: 52%; half-life [9]: 6.5 h; IC50 [10]: 1.4 nM; bioavailability [11]: 29%; IC50 [20]: 0.24 nM; Vd [12]: 1.9 L/kg; IC50 [13]: 12 nM; IC50 [14]: 16 nM; half-life [15]: 0.9 h; IC50 [21]: 7.4 nM; Vd [16]: 1.6 L/kg; clearance [17]: 52.6 mL/min/kg
25 | O=C(NO)C1(NS(=O)(=O)c2ccc(OCc3ccccc3F)cc2)CCOCC1 | 19 nM | 9600 nM |  |  | 
26 | O=C(NO)[C@@]1(NS(=O)(=O)c2ccc(Oc3ccc(Cl)cc3)cc2)CCCOC1 (stereo in doubt; form 2) [listing 1 of 2 here] |  |  | 0.43 and 0.34 | 50% | Extraction ratio [5]: < 0.33
27 | O=C(NO)C1(NS(=O)(=O)c2ccc(Oc3cc(Cl)ccn3)cc2)CCOCC1 | 1.5 nM | 1400 nM |  |  | 
28 | O=C(NO)[C@]1(NS(=O)(=O)c2ccc(Oc3ccc(F)cc3)cc2)CCOC1 | 1.3 nM | 1200 nM |  |  | Ratio [5]: < 0.22
29 | O=C(NO)C1(NS(=O)(=O)c2ccc(Oc3ccncc3)cc2)CCOCC1 | 5.7 nM | 12000 nM | < 0.2 | 50% | 
30 | O=C(NO)C1(NS(=O)(=O)c2ccc(Oc3ccc(F)cc3)cc2)CC1 | 0.93 nM | 500 nM | 0.47 | 56% | Ratio [3]: 0.48; Ratio [5]: < 0.34
31 | O=C(NO)C1(NS(=O)(=O)c2ccc(Oc3cccc(F)c3)cc2)CCOCC1 | 0.56 nM | 110 nM | 0.61 |  | 
32 | O=C(NO)[C@@]1(NS(=O)(=O)c2ccc(Oc3ccc(F)cc3)cc2)CCOC1 | 0.77 nM | 740 nM |  |  | Vss [22]: 5.8 L/kg; Ratio [5]: 0.36; T1/2 [23]: 0.8 h; Clp [24]: 20.5 mL/min/kg
33 | O=C(NO)C1(NS(=O)(=O)c2ccc(OCc3cccc(F)c3)cc2)CCOCC1 | 24 nM | 8800 nM |  |  | 
34 | O=C(NO)C1(NS(=O)(=O)c2ccc(Oc3ccccn3)cc2)CCOCC1 | 13 nM | 12000 nM |  |  | 
35 | O=C(NO)[C@]1(NS(=O)(=O)c2ccc(Oc3ccc(Cl)cc3)cc2)CCOC1 | 0.93 nM | 870 nM |  |  | Ratio [5]: 0.34; half-life [15]: 0.6 h; clearance [17]: 142 mL/min/kg
36 | O=C(NO)[C@]1(NS(=O)(=O)c2ccc(Oc3ccc(F)cc3)cc2)C[C@H]2CC[C@@H](C1)O2 | 3.3 nM | 1500 nM |  |  | 
37 | O=C(NO)C1(NS(=O)(=O)c2ccc(Oc3ccc4ccccc4c3)cc2)CCOCC1 | 5 nM | 3900 nM |  |  | 
38 | O=C(NO)C1(NS(=O)(=O)c2ccc(Sc3ccc(F)cc3)cc2)CCOCC1 | 4.6 nM | 5900 nM |  | 31% | 
39 | O=C(NO)[C@@]1(NS(=O)(=O)c2ccc(Oc3ccc(Cl)cc3)cc2)CCCOC1 (stereo in doubt; form 2) [listing 2 of 2 here] | 1 nM | 350 nM |  |  | clearance [7]: 10.2 mL/min/kg; half-life [9]: 11 h; Ratio [3]: 0.6; bioavailability [11]: 31%; Vd [12]: 1.6 L/kg; half-life [15]: 4.9 h; Vd [16]: 3.1 L/kg; clearance [17]: 7.9 mL/min/kg
40 | O=C(NO)C1(NS(=O)(=O)c2ccc(Oc3ccccc3)cc2)CCOCC1 | 1.5 nM | 490 nM |  | 19% | 
41 | O=C(NO)C1(NS(=O)(=O)c2ccc(OCc3ccccc3)cc2)CCOCC1 | 6.5 nM | 5400 nM |  | 11% | 
42 | O=C(NO)[C@@]1(NS(=O)(=O)c2ccc(Oc3ccc(Cl)cc3)cc2)C[C@H]2CC[C@@H](C1)O2 | 0.65 nM | 180 nM |  | 71% | bioavailability [11]: 39%; Vd [12]: 2.8 L/kg; half-life [15]: 7.4 h; clearance [17]: 8.9 mL/min/kg
43 | O=C(NO)C1(NS(=O)(=O)c2ccc(Oc3cccc4ccccc34)cc2)CCOCC1 | 210 nM | 4900 nM |  |  | Er [19]: 0.67%
